Results taken from article doi:10.1101/2024.08.25.609621 (bioRxiv, 2024).
Several values for one entry are separate records, joined by “and”; a condition that tells them apart may be missing. Equal values may be shown once. Read-outs that look alike come from different tables or passages of the source.

Columns and labels:
[1] = biological target: SARS-CoV-2 NSP3 macrodomain (Mac1), P43 crystal form (Severe acute respiratory syndrome coronavirus 2, UniProt P0DTD1); format: binding; settings: for PanDDA run, TFA/DMSO background map: 1-BDC / PanDDA run, TFA/DMSO background map: Hit: soak concentration 10 mM; for 1-BDC: PanDDA background density correction; for X-ray crystal structure: X-ray crystal structure determined (TRUE); for Total number of conformations: ligand conformations modeled in Mac1 crystal structure; for 2*(1-BDC) (%): occupancy estimate from PanDDA BDC; for Binding site: site of ligand in X-ray crystal structure
[2] = biological target: SARS-CoV-2 NSP3 macrodomain (Mac1) (Severe acute respiratory syndrome coronavirus 2, UniProt P0DTD1); assay: biochemical; format: binding
[3] = ligand modeling in Mac1 crystal soak
[4] = dose-response, read-out: SARS CoV-2 macrodomain HTRF assay: IC50
[5] = dose-response, read-out: SARS CoV-2 macrodomain HTRF assay: Ki
[6] = from SARS CoV-2 macrodomain HTRF assay
[7] = Single dose, concentration 200 μM, read-out: Average % competition
[8] = preliminary screen, compound at 200 μM, mean of 3-4 technical replicates, read-out: % competition in HTRF assay
[9] = Single dose, concentration 200 μM, read-out: SARS CoV-2 macrodomain HTRF assay: Average % competition
[10] = stereoisomer(s) of ligand modeled in Mac1 crystal structure
[11] = crystal soak 10 mM, P43 crystals
[12] = crystal soak 10 mM, DMSO background map
[13] = SARS CoV-2 macrodomain HTRF assay
[14] = SARS CoV-2 macrodomain HTRF assay, dose-response, read-out: Ki
[15] = crystal soak 10 mM, DMSO background map, event 1
[16] = ligand modeling in Mac1 crystal structure
[17] = stereoisomer(s) modeled in Mac1 crystal structure
[18] = SARS CoV-2 macrodomain HTRF assay, dose-response
[19] = SARS CoV-2 macrodomain HTRF assay, dose-response, read-out: IC50

Structure (SMILES)	Number of isomers bound [1, 3]	Ki [2, 5]	Ligand efficiency (binding enery per heavy atom) [2, 6]	PanDDA run, TFA/DMSO background map: 1-BDC ([1]; TFA/DMSO background map)	PanDDA run, TFA/DMSO background map: Hit ([1]; TFA/DMSO background map)	inhibition at 200 µM [2, 8]	inhibition at 200 µM [2, 9]	also measured
CC1(C)C[C@@H](CO)N(c2ncnc3[nH]ccc23)C1.O=C(O)C(F)(F)F [AVI-3704]	1	27 µM	0.35	–	–	–	–	IC50 [2, 4]: 29 µM
OCC(Cc1ccoc1)Nc1ncnc2[nH]ccc12 (stereo not shown) [AVI-3705]	1	–	–	0.14	TRUE	64%	–	inhibition at 200 µM [2, 7]: 64%
OCC1CC2(CCOCC2)CN1c1ncnc2[nH]ccc12 (stereo not shown) [AVI-3707]	1	–	–	0.15	TRUE	39%	39%	–
OCC1CC2(CCCC2)CN1c1ncnc2[nH]ccc12 (stereo not shown) [AVI-3708]	1	25 µM	0.32	–	–	–	–	IC50 [2, 4]: 27 µM
OCC(COCc1ccccc1)Nc1ncnc2[nH]ccc12 (stereo not shown) [AVI-3709]	2	–	–	0.16	TRUE	29%	–	Isomers modeled [1, 10]: S,R; inhibition at 200 µM [2, 7]: 29%
O=C(O)C(F)(F)F.OC[C@@H]1CC2(CC2)CN1c1ncnc2[nH]ccc12 [AVI-3710]	1	–	–	0.23	TRUE	57%	57%	Isomers modeled [1, 10]: S,S
OCC(Cc1cccs1)Nc1ncnc2[nH]ccc12 (stereo not shown) [AVI-3711]	1	–	–	0.16	TRUE	63%	–	inhibition at 200 µM [2, 7]: 63%
OCC1C2CCC(C2)N1c1ncnc2[nH]ccc12 (stereo not shown) [AVI-3713]	1	25 µM	0.35	–	–	–	–	Isomers modeled [1, 10]: SSR; IC50 [2, 4]: 27 µM
OCC(Nc1ncnc2[nH]ccc12)c1ccccc1 (stereo not shown) [AVI-3715]	1	–	–	0.09	TRUE	54%	–	inhibition at 200 µM [2, 7]: 54%
OCC1COCCN1c1ncnc2[nH]ccc12 (stereo not shown) [AVI-3717]	2	–	–	–	–	62%	62%	Isomers modeled [1, 10]: R,S
CC(C)(C)C1CCC(CO)N(c2ncnc3[nH]ccc23)C1 (stereo not shown) [AVI-3719]	1	–	–	–	–	36%	36%	–
OC[C@@H]1C[C@@H]2CCC[C@@H]2N1c1ncnc2[nH]ccc12 [AVI-3720]	1	26 µM	0.33	–	–	–	–	Isomers modeled [1, 10]: SSS; IC50 [2, 4]: 28 µM
CN1CCN(c2ncnc3[nH]ccc23)C(CO)C1 (stereo not shown) [AVI-3721]	1	–	–	–	–	11%	11%	Isomers modeled [1, 10]: R,R
CC(C)(C)[C@@H]1CCN(c2ncnc3[nH]ccc23)[C@H](CO)C1 [AVI-3722]	1	–	–	–	–	22%	22%	–
OC[C@H]1CN2CCC[C@H]2CN1c1ncnc2[nH]ccc12 [AVI-3724]	–	–	–	–	–	< 10%	< 10%	Pandda run, overall: Hit [1, 11]: TRUE; Pandda run, overall: Modeling comment [1, 11]: Weak density, not modeled; PanDDA run, DMSO background map: 1-BDC [1, 12]: 0.05; PanDDA run, DMSO background map: Hit [1, 12]: TRUE
CC1(C)CCC(CO)N(c2ncnc3[nH]ccc23)C1 (stereo not shown) [AVI-3726]	2	–	–	–	–	76%	76%	Isomers modeled [1, 10]: R,R,S

Structure (SMILES)	Number of isomers bound [1, 3]	Ki [2, 5]	Ligand efficiency (binding enery per heavy atom) [2, 6]	PanDDA run, TFA/DMSO background map: 1-BDC ([1]; TFA/DMSO background map)	PanDDA run, TFA/DMSO background map: Hit ([1]; TFA/DMSO background map)	inhibition at 200 µM [2, 8]	inhibition at 200 µM [2, 9]	also measured
OCC1CC2(CCCCC2)CN1c1ncnc2[nH]ccc12 (stereo not shown) [AVI-3727]	1	–	–	0.25	TRUE	67%	67%	–
OCC1CC2(CCC2)CN1c1ncnc2[nH]ccc12 (stereo not shown) [AVI-3728]	1	–	–	0.26	TRUE	79%	79%	Isomers modeled [1, 10]: S,S
C[C@@H](O)[C@H](CO)Nc1ncnc2[nH]ccc12.O=C(O)C(F)(F)F [AVI-3730]	1	–	–	0.12	TRUE	63%	–	inhibition at 200 µM [2, 7]: 63%
O=C(O)C(F)(F)F.OC1([C@H]2CCCN2c2ncnc3[nH]ccc23)Cc2ccccc2C1 [AVI-3731]	1	3.4 µM	0.31	0.14	TRUE	–	–	fold more potent compared to open state binders reported previously ([2]; open state of Phe132 loop): 10–50 fold; IC50 ([2]; read-out: HTRF IC50): 3.7 µM
Cc1nn(C)cc1C1CCC(CO)N1c1ncnc2[nH]ccc12 (stereo not shown) [AVI-3733]	1	–	–	–	–	44%	44%	–
OCCC(CO)Nc1ncnc2[nH]ccc12 (stereo not shown) [AVI-3734]	1	–	–	–	–	–	–	Ligand efficiency (binding enery per heavy atom) [2, 13]: 0.37; Ki [2, 14]: 48 µM; IC50 ([2]; read-out: HTRF IC50): 52 µM
Cc1c[nH]c2ncnc(NCC(C)(C)O)c12 [AVI-3758, 2-methyl-1-((5-methyl-7H-pyrrolo[2,3-d]pyrimidin-4-yl)amino)propan-2-ol]	–	–	–	–	–	–	–	Occupancy difference (refined_occupancy - 2*(1-BDC)) [1]: 22; Refined ligand occupancy (%) [1]: 50%; 1-BDC [1]: 0.14; X-ray crystal structure [1]: TRUE; Hit (PanDDA run, overall) [1, 11]: TRUE; Hit (PanDDA run, DMSO background map) [1, 12]: TRUE; 1-BDC (PanDDA run, DMSO background map) [1, 15]: 0.19 and 0.14; Total number of conformations [1]: 2; Number of isomers bound [1, 16]: 1; 2*(1-BDC) (%) [1]: 28%; Binding site [1]: Adenosine; Isomers modeled [1, 17]: achiral,achiral; Hill slope ([2]; HTRF dose-response fit, Mac1): 1.0; Ligand efficiency (binding enery per heavy atom) [2, 13]: 0.40; Hill slope [2, 18]: 1.0; Ki [2, 14]: 26 µM; IC50 ([2]; read-out: HTRF IC50): 28 µM
Cc1c[nH]c2ncnc(NCC3(O)CCCC3)c12 [AVI-3760, 1-(((5-methyl-7H-pyrrolo[2,3-d]pyrimidin-4-yl)amino)methyl)cyclopentan-1-ol]	–	–	–	–	–	–	–	Occupancy difference (refined_occupancy - 2*(1-BDC)) [1]: 18; Refined ligand occupancy (%) [1]: 50%; 1-BDC [1]: 0.16; X-ray crystal structure [1]: TRUE; Hit (PanDDA run, overall) [1, 11]: TRUE; Hit (PanDDA run, DMSO background map) [1, 12]: TRUE; 1-BDC (PanDDA run, DMSO background map) [1, 15]: 0.19 and 0.16; Total number of conformations [1]: 2; Number of isomers bound [1, 16]: 1; 2*(1-BDC) (%) [1]: 32%; Binding site [1]: Adenosine; Isomers modeled [1, 17]: achiral,achiral; Hill slope ([2]; HTRF dose-response fit, Mac1): 1.1; Ligand efficiency (binding enery per heavy atom) [2, 13]: 0.36; Hill slope [2, 18]: 1.1; IC50 [2, 19]: 19 µM; Ki [2, 14]: 18 µM
Cc1c[nH]c2ncnc(NCC3(O)CCCCC3)c12 [AVI-3761, 1-(((5-methyl-7H-pyrrolo[2,3-d]pyrimidin-4-yl)amino)methyl)cyclohexan-1-ol]	–	–	–	–	–	–	–	Isomers modeled [1]: achiral; Number of isomers bound [1]: 1; Ki [2]: 12 µM; IC50 ([2]; HTRF IC50): 13 µM
CC(O)C1CCCN1c1ncnc2[nH]ccc12 (stereo not shown) [AVI-4062]	–	51 µM	0.35	–	–	–	–	Number of isomers bound [1, 16]: 1; fold decrease in affinity compared to AVI-607 ([2]; HTRF): ~ 3 fold; IC50 ([2]; read-out: HTRF IC50): 55 µM
O=C(O)C(F)(F)F.OC[C@H](Cc1ccc(O)cc1)Nc1ncnc2[nH]ccc12 [AVI-4066]	–	–	–	–	–	–	–	Hit (PanDDA run, TFA/DMSO background map) ([1]; crystal soak 10 mM, TFA/DMSO background map): TRUE; 1-BDC (PanDDA run, TFA/DMSO background map) ([1]; crystal soak 10 mM, TFA/DMSO background map, event 1): 0.19 and 0.29 and 0.3; Number of isomers bound [1, 16]: 1; Ligand efficiency (binding enery per heavy atom) [2, 13]: 0.21; IC50 [2, 19]: 720 µM; Ki [2, 14]: 670 µM
CC(C)(O)C1N(c2ncnc3[nH]ccc23)CCC1(C)C (stereo not shown) [AVI-4126]	–	93 µM	0.28	–	–	–	–	Number of isomers bound [1, 16]: 2; Isomers modeled [1, 17]: R,S; IC50 [2, 4]: 100 µM
CC(C)(O)C1C2CCCCC2CN1c1ncnc2[nH]ccc12 (stereo not shown) [AVI-4127]	–	120 µM	0.25	–	–	–	–	Number of isomers bound [1, 16]: 2; Isomers modeled [1, 17]: SSR,SRS; IC50 [2, 4]: 130 µM
CC(C)(O)C1C2CCC2CN1c1ncnc2[nH]ccc12 (stereo not shown) [AVI-4128]	–	22 µM	0.32	–	–	–	–	Number of isomers bound [1, 16]: 1; Isomers modeled [1, 17]: SRR; IC50 ([2]; read-out: HTRF IC50): 24 µM
Cc1c[nH]c2ncnc(NCC3(O)CCOCC3)c12 [AVI-4194, 4-(((5-methyl-7H-pyrrolo[2,3-d]pyrimidin-4-yl)amino)methyl)tetrahydro-2H-pyran-4-ol]	–	150 µM	0.28	–	–	–	–	Number of isomers bound [1, 16]: 1; Isomers modeled [1, 17]: achiral; IC50 [2, 4]: 160 µM
Cc1c[nH]c2ncnc(NCC3(O)CCSCC3)c12 [AVI-4195, 4-(((5-methyl-7H-pyrrolo[2,3-d]pyrimidin-4-yl)amino)methyl)tetrahydro-2H-thiopyran-4-ol]	–	48 µM	0.31	–	–	–	–	Number of isomers bound [1, 16]: 1; Isomers modeled [1, 17]: achiral; IC50 [2, 4]: 52 µM
